Test results from the supplement of paper PMC10733146.

Key:
Assay in all cases: viability relative to DMSO control (fraction); higher = less drug effect (more viable cells)
Conditions in all cases: 48 h
Duvelisib = compound: C[C@H](Nc1ncnc2nc[nH]c12)c1cc2cccc(Cl)c2c(=O)n1-c1ccccc1 [Duvelisib]
Procedure, shortened: (§1)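 Viability was quantified by CellTiter-Glo luminescence and related to the median of 16 inner DMSO wells. Before that, primary mononuclear tumour cells, fresh or cryopreserved and Ficoll-isolated from blood or bone marrow or prepared from processed lymph node, were plated at 4 × 10^4 cells per well in 384-well plates containing pre-plated compounds at five concentrations, one well each. Plates were incubated in RPMI-1640 with penicillin/streptomycin, L-glutamine and human serum at 37 °C and 5% CO2 for 48 h.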

Pomalidomide = compound: Nc1cccc2c1C(=O)N(C1CCC(=O)NC1=O)C2=O [Pomalidomide]
Procedure, shortened: as §1

Vindesine = compound: CC[C@]1(O)C[C@@H]2CN(CCc3c([nH]c4ccccc34)[C@@](C(=O)OC)(c3cc4c(cc3OC)N(C)[C@H]3[C@@](O)(C(N)=O)[C@H](O)[C@]5(CC)C=CCN6CC[C@]43[C@@H]65)C2)C1 [Vindesine]
Procedure, shortened: as §1

[1] = compound: CCc1ccc(/C=C2/SC(=S)NC2=O)cc1
Procedure, shortened: as §1

Venetoclax = compound: CC1(C)CCC(CN2CCN(c3ccc(C(=O)NS(=O)(=O)c4ccc(NCC5CCOCC5)c([N+](=O)[O-])c4)c(Oc4cnc5[nH]ccc5c4)c3)CC2)=C(c2ccc(Cl)cc2)C1 [Venetoclax]
Procedure, shortened: as §1

[2] = compound: C[C@H](NC(=O)CCC(F)(F)F)C(=O)N[C@@H]1C(=O)N(CCO)c2ncccc2-c2ccccc21
Procedure, shortened: as §1

Thalidomide = compound: O=C1CCC(N2C(=O)c3ccccc3C2=O)C(=O)N1 [Thalidomide]
Procedure, shortened: as §1

Filgotinib = compound: O=C(Nc1nc2cccc(-c3ccc(CN4CCS(=O)(=O)CC4)cc3)n2n1)C1CC1 [Filgotinib]
Procedure, shortened: as §1

[3] = compound: C[C@H]1C[C@@H](n2c(Nc3ccc(OC(F)(F)F)cc3)nc3cc(CCC(=O)O)ccc32)CC(C)(C)C1
Procedure, shortened: as §1

Idasanutlin (RS7388) = compound: COc1cc(C(=O)O)ccc1NC(=O)[C@@H]1N[C@@H](CC(C)(C)C)[C@](C#N)(c2ccc(Cl)cc2F)[C@H]1c1cccc(Cl)c1F [Idasanutlin (RS7388)]
Procedure, shortened: as §1

[4] = compound: O=C(Nc1ccc2[nH]nc(-c3ccncc3)c2c1)[C@@H]1CCN(CC(=O)N2CCN(c3ccc(-c4ncccn4)cc3)CC2)C1
Procedure, shortened: as §1

Chlorambucil = compound: O=C(O)CCCc1ccc(N(CCCl)CCCl)cc1 [Chlorambucil]
Procedure, shortened: as §1

[5] = compound: O=C(NO)c1cccc(C(=O)NCCc2ccccc2)c1
Procedure, shortened: as §1

Navitoclax = compound: CC1(C)CCC(c2ccc(Cl)cc2)=C(CN2CCN(c3ccc(C(=O)NS(=O)(=O)c4ccc(N[C@H](CCN5CCOCC5)CSc5ccccc5)c(S(=O)(=O)C(F)(F)F)c4)cc3)CC2)C1 [Navitoclax]
Procedure, shortened: as §1

I-BET-762 = compound: CCNC(=O)C[C@@H]1N=C(c2ccc(Cl)cc2)c2cc(OC)ccc2-n2c(C)nnc21 [I-BET-762]
Procedure, shortened: as §1

primary AML patient cells (S006) showed a viability (Duvelisib; 0.0016 µM) of 0.947, a viability (Duvelisib; 0.008 µM) of 0.902 and a viability (Duvelisib; 0.04 µM) of 0.864. For the same test system, the viability (Duvelisib; 0.2 µM) was 0.817, the viability (Duvelisib; 1 µM) was 0.726 and the viability (Pomalidomide; 0.0032 µM) was 0.812. The viability (Pomalidomide; 0.016 µM) was 0.817, the viability (Pomalidomide; 0.08 µM) was 0.786 and the viability (Pomalidomide; 0.4 µM) was 0.622. It also gave a viability (Pomalidomide; 2 µM) of 0.656, a viability (Vindesine; 0.016 µM) of 0.778 and a viability (Vindesine; 0.08 µM) of 0.395. For the same test system, the viability (Vindesine; 0.4 µM) was 0.244, the viability (Vindesine; 2 µM) was 0.207 and the viability (Vindesine; 10 µM) was 0.194. It also gave a viability ([1]; 0.024 µM) of 0.827, a viability ([1]; 0.12 µM) of 0.884 and a viability ([1]; 0.6 µM) of 0.929. For the same test system, the viability ([1]; 3 µM) was 0.883, the viability ([1]; 15 µM) was 0.833 and the viability (Venetoclax; 0.00064 µM) was 0.943. The viability (Venetoclax; 0.0032 µM) was 0.649, the viability (Venetoclax; 0.016 µM) was 0.314 and the viability (Venetoclax; 0.08 µM) was 0.135. For the same test system, the viability (Venetoclax; 0.4 µM) was 0.0687, the viability ([2]; 0.016 µM) was 1.13 and the viability ([2]; 0.08 µM) was 1.16. The viability ([2]; 0.4 µM) was 1.11, the viability ([2]; 2 µM) was 1.19 and the viability ([2]; 10 µM) was 1.08. The viability (Thalidomide; 0.032 µM) was 0.974, the viability (Thalidomide; 0.16 µM) was 0.915 and the viability (Thalidomide; 0.8 µM) was 0.895. The viability (Thalidomide; 4 µM) was 0.897, the viability (Thalidomide; 20 µM) was 0.843 and the viability (Filgotinib; 0.024 µM) was 0.955. For the same test system, the viability (Filgotinib; 0.12 µM) was 0.98, the viability (Filgotinib; 0.6 µM) was 0.738 and the viability (Filgotinib; 3 µM) was 0.451. The viability (Filgotinib; 15 µM) was 0.844, the viability ([3]; 0.024 µM) was 1.02 and the viability ([3]; 0.12 µM) was 1.14. The viability ([3]; 0.6 µM) was 1.08, the viability ([3]; 3 µM) was 1.04 and the viability ([3]; 15 µM) was 0.957. It also gave a viability (Idasanutlin (RS7388); 0.032 µM) of 0.488, a viability (Idasanutlin (RS7388); 0.16 µM) of 0.25 and a viability (Idasanutlin (RS7388); 0.8 µM) of 0.0758. For the same test system, the viability (Idasanutlin (RS7388); 4 µM) was 0.0429, the viability (Idasanutlin (RS7388); 20 µM) was 0.0408 and the viability ([4]; 0.008 µM) was 0.989. The viability ([4]; 0.04 µM) was 0.932, the viability ([4]; 0.2 µM) was 0.856 and the viability ([4]; 1 µM) was 0.753. The viability ([4]; 5 µM) was 0.548, the viability (Chlorambucil; 0.032 µM) was 1.03 and the viability (Chlorambucil; 0.16 µM) was 0.922. It also gave a viability (Chlorambucil; 0.8 µM) of 0.945, a viability (Chlorambucil; 4 µM) of 0.522 and a viability (Chlorambucil; 20 µM) of 0.154. The viability ([5]; 0.024 µM) was 1.03, the viability ([5]; 0.12 µM) was 0.999 and the viability ([5]; 0.6 µM) was 1.04. The viability ([5]; 3 µM) was 0.933, the viability ([5]; 15 µM) was 0.837 and the viability (Navitoclax; 0.0032 µM) was 0.989. The viability (Navitoclax; 0.016 µM) was 0.771, the viability (Navitoclax; 0.08 µM) was 0.306 and the viability (Navitoclax; 0.4 µM) was 0.0666. The viability (Navitoclax; 2 µM) was 0.0316.

For primary T-NHL patient cells (S058), the viability (Duvelisib; 0.0016 µM) was 1.1, the viability (Duvelisib; 0.008 µM) was 1.04 and the viability (Duvelisib; 0.04 µM) was 0.923. For the same test system, the viability (Duvelisib; 0.2 µM) was 1.03, the viability (Duvelisib; 1 µM) was 0.91 and the viability (Pomalidomide; 0.0032 µM) was 0.937. The viability (Pomalidomide; 0.016 µM) was 1.16, the viability (Pomalidomide; 0.08 µM) was 1.27 and the viability (Pomalidomide; 0.4 µM) was 0.858. For the same test system, the viability (Pomalidomide; 2 µM) was 1.2, the viability ([1]; 0.024 µM) was 0.89 and the viability ([1]; 0.12 µM) was 0.978. For the same test system, the viability ([1]; 0.6 µM) was 1.14, the viability ([1]; 3 µM) was 0.927 and the viability ([1]; 15 µM) was 0.909. The viability (Venetoclax; 0.00064 µM) was 1.06, the viability (Venetoclax; 0.0032 µM) was 1.13 and the viability (Venetoclax; 0.016 µM) was 0.921. It also gave a viability (Venetoclax; 0.08 µM) of 0.718, a viability (Venetoclax; 0.4 µM) of 0.547 and a viability (I-BET-762; 0.008 µM) of 1.17. For the same test system, the viability (I-BET-762; 0.04 µM) was 1.03, the viability (I-BET-762; 0.2 µM) was 0.904 and the viability (I-BET-762; 1 µM) was 0.816. The viability (I-BET-762; 5 µM) was 0.61, the viability (Thalidomide; 0.032 µM) was 1.03 and the viability (Thalidomide; 0.16 µM) was 1.02. The viability (Thalidomide; 0.8 µM) was 1.07, the viability (Thalidomide; 4 µM) was 1.14 and the viability (Thalidomide; 20 µM) was 1.02. For the same test system, the viability (Filgotinib; 0.024 µM) was 0.912, the viability (Filgotinib; 0.12 µM) was 0.985 and the viability (Filgotinib; 0.6 µM) was 0.904. For the same test system, the viability (Filgotinib; 3 µM) was 0.875, the viability (Filgotinib; 15 µM) was 0.524 and the viability ([4]; 0.008 µM) was 1.04. The viability ([4]; 0.04 µM) was 1.1, the viability ([4]; 0.2 µM) was 1.01 and the viability ([4]; 1 µM) was 0.989. The viability ([4]; 5 µM) was 0.908, the viability (Chlorambucil; 0.032 µM) was 1.02 and the viability (Chlorambucil; 0.16 µM) was 0.938. For the same test system, the viability (Chlorambucil; 0.8 µM) was 0.932, the viability (Chlorambucil; 4 µM) was 0.81 and the viability (Chlorambucil; 20 µM) was 0.262. For the same test system, the viability ([5]; 0.024 µM) was 1.02, the viability ([5]; 0.12 µM) was 1.31 and the viability ([5]; 0.6 µM) was 1.07. For the same test system, the viability ([5]; 3 µM) was 1.02, the viability ([5]; 15 µM) was 1.08 and the viability (Navitoclax; 0.0032 µM) was 1.19. For the same test system, the viability (Navitoclax; 0.016 µM) was 1.08, the viability (Navitoclax; 0.08 µM) was 1.01 and the viability (Navitoclax; 0.4 µM) was 0.568. The viability (Navitoclax; 2 µM) was 0.325.
